Measured values reported in PubChem BioAssay (NCI).
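Values below derive from 48-hour exposures of cells grown in 96-well plates, with endpoints linearly interpolated between the two concentrations bracketing the appropriate inhibition level. GI50 is the concentration that inhibits growth by half. TGI is the concentration that stops growth completely.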

Assays:
Test in all cases: DTP human tumour cell line panel, 48 h
IGROV1 ovarian = tested on: IGROV1 ovarian
TK-10 renal = tested on: TK-10 renal
SK-MEL-5 melanoma = tested on: SK-MEL-5 melanoma
UACC-62 melanoma = tested on: UACC-62 melanoma
LOX IMVI melanoma = tested on: LOX IMVI melanoma
SF-295 CNS = tested on: SF-295 CNS
SN12C renal = tested on: SN12C renal
A549 NSCLC = tested on: A549 NSCLC
HCT-116 colon = tested on: HCT-116 colon
A498 renal = tested on: A498 renal

Row | Structure (SMILES) | TGI (IGROV1 ovarian) | TGI (TK-10 renal) | TGI (SK-MEL-5 melanoma) | TGI (UACC-62 melanoma) | TGI (LOX IMVI melanoma) | TGI (SF-295 CNS) | TGI (SN12C renal) | TGI (A549 NSCLC) | TGI (HCT-116 colon) | GI50 (IGROV1 ovarian) | GI50 (A498 renal) | TGI (A498 renal) | GI50 (TK-10 renal) | GI50 (SK-MEL-5 melanoma) | GI50 (UACC-62 melanoma) | GI50 (SF-295 CNS) | GI50 (SN12C renal) | GI50 (A549 NSCLC) | GI50 (HCT-116 colon) | GI50 (LOX IMVI melanoma)
1 | O=C1COc2cc(NC(=S)Nc3ccccc3)ccc2N1 | > 100 µM | > 100 µM | > 100 µM | > 100 µM | > 100 µM | > 100 µM | > 100 µM | > 100 µM | > 100 µM | – | – | – | – | – | – | – | – | – | – | –
2 | C=C(C)[C@@H]1CC[C@]2(COCCCN)CC[C@]3(C)[C@H](CC[C@@H]4[C@@](C)(CCCNCCCN)[C@H](C(=C)C)CC[C@]43C)[C@@H]12 | 2.9 µM | 3.15 µM | 3.27 µM | 3.22 µM | – | 3.83 µM | 2.96 µM | 3.63 µM | 2.84 µM | 1.49 µM | 14.5 µM | 37.1 µM | 1.68 µM | 1.81 µM | 1.71 µM | 1.94 µM | 1.58 µM | 1.89 µM | 1.45 µM | –
3 | CC(=O)Oc1cc2c(cc1OC(C)=O)C1(C)CCC2(C)c2cc(OC(C)=O)c(OC(C)=O)cc21 | 72.3 µM | 76.6 µM | 54.7 µM | 29.5 µM | > 100 µM | 58.8 µM | > 100 µM | > 100 µM | – | – | – | – | – | – | – | – | – | – | – | –
4 | Cc1cn(C2CC(OC(=O)c3ccc(Cl)cc3)C(COC(=O)c3ccc(Cl)cc3)O2)c(=O)[nH]c1=O (stereo not given) | > 100 µM | > 100 µM | > 100 µM | > 100 µM | > 100 µM | > 100 µM | > 100 µM | > 100 µM | > 100 µM | – | – | – | – | – | – | – | – | – | – | –
5 | N/N=C\c1c2ccccc2c(=O)n2c1oc1ccccc12 | – | 34.3 µM | 8.34 µM | 19.7 µM | 29.9 µM | 12.3 µM | 29.7 µM | 41.7 µM | – | – | – | – | 18.7 µM | 2.8 µM | 6.82 µM | 2.61 µM | 14.4 µM | 11.2 µM | – | 16.4 µM
6 | C[C@]12CC=CC(=O)[C@@]1(C)CCC(=O)C2 | > 100 µM | > 100 µM | > 100 µM | > 100 µM | – | > 100 µM | > 100 µM | > 100 µM | > 100 µM | – | – | > 100 µM | – | – | – | – | – | – | – | –
7 | CSC(SC)(C(=O)O)c1cc(-c2c(Cl)cccc2Cl)no1 | > 100 µM | > 100 µM | 85.8 µM | > 100 µM | > 100 µM | > 100 µM | > 100 µM | > 100 µM | > 100 µM | – | – | – | – | – | – | – | – | – | – | –
8 | CC(=O)C1C(c2ccccc2)C2(C)OC(=O)C(C#N)C12C (stereo not given) | > 100 µM | > 100 µM | > 100 µM | > 100 µM | > 100 µM | > 100 µM | > 100 µM | > 100 µM | > 100 µM | – | – | – | – | – | – | – | – | – | – | –
9 | CC(=O)c1ccc(NC(=O)/C(CC(=O)c2sc(-c3cccnc3)nc2C)=N/NC(N)=O)cc1 | > 100 µM | – | > 100 µM | > 100 µM | > 100 µM | > 100 µM | > 100 µM | 71.2 µM | 42.5 µM | – | – | > 100 µM | – | – | – | – | – | – | – | –
10 | CCOC1C(Br)Cn2c(=O)c3cc4ccccc4cc3c(=O)n2C1C (stereo not given) | > 100 µM | > 100 µM | > 100 µM | – | > 100 µM | > 100 µM | > 100 µM | > 100 µM | > 100 µM | – | – | 78.7 µM | – | – | – | – | – | – | – | –
11 | NC(CSC(c1ccccc1)(c1ccccc1)c1ccccc1)C(=O)NCC(=O)O (stereo not given) | > 100 µM | – | 31.4 µM | > 100 µM | > 100 µM | > 100 µM | > 100 µM | > 100 µM | > 100 µM | 10.7 µM | 4.31 µM | 86.1 µM | – | 3.4 µM | 7.25 µM | 6.1 µM | 4.05 µM | 8 µM | 3.97 µM | 7.66 µM
12 | C=C1c2c(C)nn(-c3ccc(C#CCOC4OC(CO)C(O)C(O)C4O)cc3)c2N(C)C23C[C@H]1C1(C)c4c(C)nn(-c5ccc(C#CCOC6OC(CO)C(O)C(O)C6O)cc5)c4N(C)C(C)(C[C@H]12)C3 (stereo not given in full) | 3.95 µM | 4.04 µM | 2.71 µM | 2.86 µM | 2.79 µM | – | 3.72 µM | 4.09 µM | – | 1.56 µM | 1.5 µM | 3.18 µM | 2.01 µM | 1.38 µM | 1.22 µM | – | 1.38 µM | 1.68 µM | – | 1.37 µM
13 | C[C@]12CCc3sc(Nc4ccc(OC(F)(F)F)cc4)nc3C1=CC[C@@H]1[C@@H]2CC[C@]2(C)C(=O)CC[C@@H]12 | 10.8 µM | 32 µM | 7.41 µM | 10.3 µM | 3.18 µM | 2.44 µM | 16.1 µM | 16.1 µM | – | 3.32 µM | 2.09 µM | 5.77 µM | 4.82 µM | 2.62 µM | 3.03 µM | 0.7 µM | 3.44 µM | 3.35 µM | – | 1.74 µM
14 | C=CC[P@]1(=O)O[C@H](c2ccccc2)[C@H](C)N1C | > 100 µM | > 100 µM | > 100 µM | > 100 µM | > 100 µM | > 100 µM | > 100 µM | > 100 µM | – | – | – | > 100 µM | – | – | – | – | – | – | – | –
15 | CCC1=CCN(c2cc(C)ccn2)OC1c1ccc(OC)cc1 (stereo not given) | > 100 µM | – | 30.5 µM | > 100 µM | > 100 µM | 70.8 µM | 64.6 µM | > 100 µM | 71.8 µM | – | – | – | – | – | – | – | – | – | – | –
16 | CCN(CC)CCNC(Cc1ccccc1)c1ccc(OCc2ccccc2)cc1 (stereo not given) | 17.1 µM | – | 4.46 µM | 3.89 µM | 15.9 µM | 4.57 µM | 20.8 µM | 22 µM | 25.5 µM | 4.43 µM | 2.02 µM | 7.94 µM | – | 1.97 µM | 1.92 µM | 2.04 µM | 6.68 µM | 7.74 µM | 4.25 µM | 4.19 µM
17 | COc1ccc([C@@]2(O)c3c(ccc(O)c3OC)[C@H]2OC)c(OC)c1 | > 100 µM | > 100 µM | > 100 µM | – | – | > 100 µM | > 100 µM | > 100 µM | > 100 µM | – | – | > 100 µM | – | – | – | – | – | – | – | –
18 | CN(C)C/C=C/C(=O)Nc1ccc(C(=O)N[C@@]2(C)CCC[C@@H](Nc3ncc(Cl)c(-c4c[nH]c5ccccc45)n3)C2)nc1 | – | 1.11 µM | 0.779 µM | 0.0728 µM | – | 1.1 µM | – | – | 0.124 µM | – | 0.0189 µM | 0.0621 µM | 0.0153 µM | 0.0221 µM | < 0.01 µM | 0.0126 µM | – | – | < 0.01 µM | –
19 | COc1ccc(C(C#N)NC23CC4CC(CC(C4)C2)C3)cc1 (stereo not given) | > 100 µM | > 100 µM | > 100 µM | > 100 µM | > 100 µM | > 100 µM | > 100 µM | > 100 µM | > 100 µM | – | – | – | – | – | – | – | – | – | – | –
20 | Cc1ccc(S(=O)(=O)N/N=C2\CCCCC23CCC(=O)NC3)cc1 (stereo not given) | > 100 µM | > 100 µM | > 100 µM | > 100 µM | – | – | > 100 µM | > 100 µM | > 100 µM | – | – | > 100 µM | – | – | – | – | – | – | – | –
21 | CCCC1(CC(=O)O)OCCc2c1[nH]c1ccccc21 (stereo not given) | > 100 µM | > 100 µM | > 100 µM | > 100 µM | > 100 µM | > 100 µM | > 100 µM | > 100 µM | – | – | – | > 100 µM | – | – | – | – | – | – | – | –
22 | COc1ccc2c(c1)C(=O)CCc1cc(OC)c(OC)c(OC)c1-2 | – | > 100 µM | – | > 100 µM | > 100 µM | > 100 µM | > 100 µM | > 100 µM | > 100 µM | – | – | – | – | – | < 0.01 µM | < 0.01 µM | < 0.01 µM | < 0.01 µM | < 0.01 µM | < 0.01 µM
23 | COc1ccc(NC(=O)CC/C(CC(=O)c2ccco2)=N/NC(=O)C(N)=O)cc1 | > 100 µM | > 100 µM | > 100 µM | > 100 µM | > 100 µM | > 100 µM | > 100 µM | > 100 µM | – | – | – | > 100 µM | – | – | – | – | – | – | – | –
24 | CC1(O)C(C)(O)C2(C)O[Te]3(OC12C)OC1(C)C(C)(O)C(C)(O)C1(C)O3 (stereo not given) | 35.7 µM | > 100 µM | 32.7 µM | > 100 µM | 18.9 µM | > 100 µM | > 100 µM | 79 µM | – | – | – | – | – | – | – | – | – | – | – | –
25 | CC(C)(C)c1cc([N+](=O)[O-])cc([N+](=O)[O-])c1O | > 10 µM | > 10 µM | > 10 µM | > 10 µM | > 10 µM | > 10 µM | > 10 µM | > 10 µM | > 10 µM | – | – | – | – | – | – | – | – | – | – | –
26 | O=C(Nc1cccc(O)c1)C(=O)C1C(=O)NC(=S)NC1=O | > 100 µM | – | > 100 µM | > 100 µM | > 100 µM | > 100 µM | > 100 µM | > 100 µM | > 100 µM | – | – | > 100 µM | – | – | – | – | – | – | – | –
27 | Cc1ccc(S(=O)(=O)OC2CC=CC2)cc1 | > 100 µM | > 100 µM | > 100 µM | > 100 µM | > 100 µM | > 100 µM | > 100 µM | > 100 µM | > 100 µM | – | – | – | – | – | – | – | – | – | – | –
28 | Cn1c(Cl)c(/C=C2/C(=O)Nc3ccccc32)c2ccccc21 | > 100 µM | 20.4 µM | 1.23 µM | 7.1 µM | 18.9 µM | 2.21 µM | 23.7 µM | > 63 µM | 12.3 µM | 2.12 µM | – | – | 1.5 µM | 0.0964 µM | 0.13 µM | 0.223 µM | 1.87 µM | 6.58 µM | 0.306 µM | 1.16 µM
29 | CN(C)CCOc1ccc([N+](=O)[O-])c2cccnc12 | > 100 µM | > 100 µM | > 100 µM | > 100 µM | – | > 100 µM | > 100 µM | > 100 µM | > 100 µM | – | – | > 100 µM | – | – | – | – | – | – | – | –
